Reference: PubChem BioAssay AID651833 (Broad Institute, 2012)
“And” between values parts separate entries of the source, which are not always exact repeats. Identical values can stand only once. The source made the active and inactive calls.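 Rule for the calls: active = fitted curve reaching 40% activation at or below the sample's highest valid tested dose; inconclusive = flat fit between 30% and 70%, or poor fit; inactive = the rest, including opposite-direction activity.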

biological target: Kelch-like ECH-associated protein 1 (Homo sapiens) + Nuclear factor erythroid 2-related factor 2 (Homo sapiens) (UniProt Q14145+Q16236); assay: cellular Nrf2 nuclear translocation induction – PathHunter, U2OS cells, dry powder, orthogonal assay for Keap1-Nrf2 interaction inhibitor project, dose response (AID 651833); details: beta-gal luminescence, 3 h
Sequence (Q14145 whole entry, looked up): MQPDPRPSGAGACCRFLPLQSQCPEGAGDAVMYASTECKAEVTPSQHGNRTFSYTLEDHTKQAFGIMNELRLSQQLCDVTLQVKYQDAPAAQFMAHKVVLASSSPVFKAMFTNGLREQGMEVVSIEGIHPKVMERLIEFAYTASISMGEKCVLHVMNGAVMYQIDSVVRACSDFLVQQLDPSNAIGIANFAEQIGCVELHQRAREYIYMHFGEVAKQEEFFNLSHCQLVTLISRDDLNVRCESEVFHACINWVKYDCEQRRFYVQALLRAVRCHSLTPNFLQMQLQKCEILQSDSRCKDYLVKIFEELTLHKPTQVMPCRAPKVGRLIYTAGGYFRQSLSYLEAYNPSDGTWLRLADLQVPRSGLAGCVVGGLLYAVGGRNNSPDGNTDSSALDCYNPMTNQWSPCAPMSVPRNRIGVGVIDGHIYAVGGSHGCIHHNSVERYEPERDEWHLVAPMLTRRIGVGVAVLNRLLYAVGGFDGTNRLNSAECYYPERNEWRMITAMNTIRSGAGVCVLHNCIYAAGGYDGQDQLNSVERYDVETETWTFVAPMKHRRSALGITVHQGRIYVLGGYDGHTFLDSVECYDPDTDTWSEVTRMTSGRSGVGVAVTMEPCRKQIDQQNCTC
Sequence (Q16236 whole entry, looked up): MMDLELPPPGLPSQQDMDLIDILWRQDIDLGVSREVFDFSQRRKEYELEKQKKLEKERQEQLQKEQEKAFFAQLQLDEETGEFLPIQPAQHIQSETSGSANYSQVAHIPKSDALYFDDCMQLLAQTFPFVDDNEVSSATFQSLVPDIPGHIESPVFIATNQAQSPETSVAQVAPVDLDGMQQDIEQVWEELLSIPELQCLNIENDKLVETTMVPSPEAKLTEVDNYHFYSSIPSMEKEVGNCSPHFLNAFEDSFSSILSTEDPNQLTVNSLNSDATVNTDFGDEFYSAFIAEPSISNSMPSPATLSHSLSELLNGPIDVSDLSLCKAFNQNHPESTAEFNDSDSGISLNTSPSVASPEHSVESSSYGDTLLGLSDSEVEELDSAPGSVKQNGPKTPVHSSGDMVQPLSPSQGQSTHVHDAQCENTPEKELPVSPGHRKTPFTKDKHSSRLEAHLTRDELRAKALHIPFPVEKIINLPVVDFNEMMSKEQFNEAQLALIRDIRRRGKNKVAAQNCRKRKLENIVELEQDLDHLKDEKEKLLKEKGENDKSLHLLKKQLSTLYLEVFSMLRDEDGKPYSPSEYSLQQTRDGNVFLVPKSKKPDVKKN

| SMILES | AC40 |
| --- | --- |
| O=C(NC[C@@H]1c2ccccc2CCN1C(=O)[C@@H]1CCCC[C@@H]1C(=O)O)c1ccccc1 | > 38 µM (inactive) |
| Cc1ccc(S(=O)(=O)NNc2nc(C(C(=O)OC(C)C)C(=O)C(F)(F)F)nc3ccccc23)cc1 (configuration not stated) | 18.5 µM |
| Cc1cc(C)c(S(=O)(=O)Nc2cc(C(C(=O)OC(C)C)C(=O)C(F)(F)F)c(O)c3ccccc23)c(C)c1 (configuration not stated) | 1.1 µM |
| O=C(O)[C@H]1C2C=CC(C2)[C@H]1C(=O)N1CCc2ccccc2C1CN1C(=O)c2ccccc2C1=O (some centres not stated) | > 38 µM (inactive) |
| CC(=O)Nc1cc(NS(=O)(=O)c2c(C)cc(C)cc2C)c2ccccc2c1O | 27.2 µM |
| COC(=O)C(C(=O)OC)c1cc(NS(=O)(=O)c2c(C)cc(C)cc2C)c2ccccc2c1O | 4.21 µM |
| O=C(O)C1CCCCC1C(=O)N1CCc2ccccc2C1CN1Cc2ccccc2C1=O (configuration not stated) | > 38 µM (inactive) |
| Cc1ccc(S(=O)(=O)Nc2cc(C(C(=O)OC(C)C)C(=O)C(F)(F)F)c(O)c3ccccc23)c(C)c1 (configuration not stated) | 5.12 µM |
| Cc1ccc(S(=O)(=O)Nc2cc(C(C(=O)OC(C)C)C(=O)C(F)(F)F)c(O)c3ccccc23)cc1 (configuration not stated) | 12.1 µM |
| Cc1ccccc1S(=O)(=O)Nc1cc(C(C(=O)OC(C)C)C(=O)C(F)(F)F)c(O)c2ccccc12 (configuration not stated) | 6.97 µM |
| CC(C)OC(=O)C(C(=O)C(F)(F)F)c1cc(NS(=O)(=O)c2ccccc2)c2ccccc2c1O (configuration not stated) | 20 µM |
| O=C(Oc1cc(CN2C(=O)c3ccccc3C2=O)c2ccccc2[n+]1[O-])c1cccc(Cl)c1 | 30 µM |
| Cc1cc(C)c(S(=O)(=O)Nc2nc(C(C(=O)OC(C)C)C(=O)C(F)(F)F)nc3ccccc23)c(C)c1 (configuration not stated) | > 38 µM (inactive) |
| Cc1ccc(S(=O)(=O)NC2=CC(=N[C@@H](C)C(=O)OC(C)(C)C)C(=O)c3ccccc32)c(C)c1 | > 38 µM (inactive) |
| Cc1ccc(S(=O)(=O)NNc2nc(N3CC(O)CC3C(=O)O)nc3ccccc23)cc1 (configuration not stated) | > 38 µM (inactive) |
| O=C(NC[C@@H]1c2ccccc2CCN1C(=O)[C@@H]1CCCC[C@@H]1C(=O)O)c1ccc(CCl)cc1 | > 38 µM (inactive) |
| O=C(O)Cc1ccccc1C(=O)N1CCc2ccccc2[C@H]1CN1C(=O)c2ccccc2C1=O | > 38 µM (inactive) |
| O=C(NC[C@@H]1c2ccccc2CCN1C(=O)[C@@H]1CCCC[C@@H]1C(=O)O)OCC1c2ccccc2-c2ccccc21 | > 38 µM (inactive) |

same assay, conditions: beta-gal luminescence, 3 h, at 10 µM (top of the series)

| SMILES | activation |
| --- | --- |
| O=C1c2ccccc2C(=O)N1CC1c2ccccc2CCN1C(=O)Cc1ccccc1 (configuration not stated) | -2.75% (inactive) |

same assay, conditions: beta-gal luminescence, 3 h, at 38 µM (top of the series)

| SMILES | activation |
| --- | --- |
| O=C(O)[C@H]1CCCC[C@H]1C(=O)N1CCc2ccccc2[C@H]1CNS(=O)(=O)c1ccc([N+](=O)[O-])cc1 | 6.37% (inactive) |
| CC(C)CNc1nc(NS(=O)(=O)c2ccccc2)c2ccccc2n1 | 7.06% (inactive) |
| O=C(O)C1CCCCC1C(=O)N1CCc2ccccc2[C@H]1C(=O)NCCc1ccccc1 (some centres not stated) | 0.849% (inactive) |
| COC(=O)[C@@H]1CCCC[C@@H]1C(=O)N1CCc2ccccc2[C@H]1CN1C(=O)c2ccccc2C1=O | -2.72% (inactive) |
| O=C(O)C1CCCCC1C(=O)NCC1c2ccccc2CCN1C(=O)Cc1ccccc1 (configuration not stated) | 0.036% (inactive) |
| O=C1c2ccccc2C(=O)N1C[C@@H]1c2ccccc2CCN1C(=O)C1CCCCC1 | 0.733% (inactive) |
| C=CC(=O)NC[C@@H]1c2ccccc2CCN1C(=O)[C@@H]1CCCC[C@@H]1C(=O)O | 6.96% (inactive) |
| O=C(NC[C@@H]1c2ccccc2CCN1C(=O)[C@@H]1CCCC[C@@H]1C(=O)O)c1ccc(CN2CCOCC2)cc1 | 2.86% (inactive) |
| C[C@@H](NC(=O)C1CCCC[C@H]1C(=O)O)c1ccccc1 (mixture of isomers) | -1.8% (inactive) |
| O=C(O)CCCC(=O)N1CCc2ccccc2C1CN1C(=O)c2ccccc2C1=O (configuration not stated) | 3.41% (inactive) |
| COC(=O)[C@H]1CCCC[C@H]1C(=O)N1CCc2ccccc2[C@H]1CN1C(=O)c2ccccc2C1=O | -2.1% (inactive) |
| O=C(O)C1CCCCC1C(=O)Nc1ccccc1CN1C(=O)c2ccccc2C1=O (configuration not stated) | -2.72% (inactive) |
| COc1ccc(CCN=C2C=C(NS(=O)(=O)c3c(C)cc(C)cc3C)c3ccccc3C2=O)cc1 | 5.19% (inactive) |
| O=S(=O)(Nc1nc(NCC2CCCCC2)nc2ccccc12)c1ccccc1 | 3.97% (inactive) |
| O=C(NCCO)c1ccccc1C(=O)NC[C@@H]1c2ccccc2CCN1C(=O)C1CCCCC1C(=O)O (some centres not stated) | 4.09% (inactive) |
| O=C(Cc1ccccc1)NC[C@@H]1c2ccccc2CCN1C(=O)[C@@H]1CCCC[C@@H]1C(=O)O | 6.26% (inactive) |
| O=C(O)c1ccccc1C(=O)N1CCc2ccccc2C1CN1C(=O)c2ccccc2C1=O (configuration not stated) | 4.54% (inactive) |
| O=C1c2ccccc2C(=O)N1C[C@@H]1c2ccccc2CCN1C(=O)OCc1ccccc1 | 1.45% (inactive) |
| O=C1c2ccccc2C(=O)N1CC1=NCCc2ccccc21 | -0.067% (inactive) |
| O=C1c2ccccc2C(=O)N1C[C@H]1NCCc2ccccc21 | -2.67% (inactive) |

| SMILES | activation |
| --- | --- |
| O=C(O)C1CCCCC1C(=O)N1CCc2ccccc2C1CN1C(=O)c2ccccc2S1(=O)=O (configuration not stated) | 13.7% (inactive) |
| Cc1ccc(S(=O)(=O)NC(=O)[C@@H]2c3ccccc3CCN2C(=O)[C@@H]2CCCC[C@@H]2C(=O)O)cc1 | 6.05% (inactive) and 8.58% (inactive) |
| COC(=O)CNc1nc(NS(=O)(=O)c2c(C)cc(C)cc2C)c2ccccc2n1 | 3.66% (inactive) |
| NC(=O)c1ccccc1C(=O)NC[C@@H]1c2ccccc2CCN1C(=O)[C@@H]1CCCC[C@@H]1C(=O)O | 8.88% (inactive) |
| O=C(O)[C@H]1CCCC[C@H]1C(=O)N1CCc2ccccc2C1CCN1C(=O)c2ccccc2C1=O (some centres not stated) | 0.812% (inactive) and -0.193% (inactive) |
| CCOC(=O)C(C(=O)OCC)c1cc(CN2C(=O)c3ccccc3C2=O)c2ccccc2n1 | 9.41% (inactive) |
| Cc1cc(C)c(S(=O)(=O)Nc2nc(N(C)C)nc3ccccc23)c(C)c1 | 2.02% (inactive) |
| COC(=O)C1CCCCC1C(=O)N1CCc2ccccc2C1CN1C(=O)c2ccccc2C1=O (configuration not stated) | 1.27% (inactive) |
| O=C(O)CC(=O)N1CCc2ccccc2C1CN1C(=O)c2ccccc2C1=O (configuration not stated) | 2.73% (inactive) |
| O=C(O)C1CCCCC1C(=O)N1CCc2ccccc2C1CN1C(=O)Cc2ccccc2C1=O (configuration not stated) | 8.47% (inactive) |
| COc1ccccc1CCNC(=O)[C@@H]1c2ccccc2CCN1C(=O)C1CCCCC1C(=O)O (some centres not stated) | -2.36% (inactive) and -1.69% (inactive) |
| O=C(O)C1CCCCC1C(=O)N1CCc2ccccc2C1c1ccccc1 (configuration not stated) | -2.53% (inactive) |
| O=C(O)CCC(=O)N1CCc2ccccc2C1CN1C(=O)c2ccccc2C1=O (configuration not stated) | 1.36% (inactive) |
| Cc1cc(C)c(S(=O)(=O)Nc2cc(C(C(=O)OCc3ccccc3)C(=O)OCc3ccccc3)c(O)c3ccccc23)c(C)c1 | 5.34% (inactive) |
| O=C(O)C1CCCCC1C(=O)N1CCCCC1CN1C(=O)c2ccccc2C1=O (configuration not stated) | -1.78% (inactive) |
| CCOC(=O)C(C(=O)OCC)c1nc(NS(=O)(=O)c2c(C)cc(C)cc2C)c2ccccc2n1 | 1.28% (inactive) |
| C[C@H](NC(=O)C1CCCC[C@H]1C(=O)O)c1ccccc1 (mixture of isomers) | -4.29% (inactive) |
| O=C(O)[C@H]1CCCC[C@H]1C(=O)N1CCC2=C(CCCC2)C1CN1C(=O)c2ccccc2C1=O (some centres not stated) | 11% (inactive) and -0.217% (inactive) |
| CCOC(=O)Cc1nc(NS(=O)(=O)c2c(C)cc(C)cc2C)c2ccccc2n1 | 8.62% (inactive) |
| O=C(O)C1CCCCC1C(=O)N1CCc2ccccc2C1CN1C(=O)[C@H]2CCCC[C@H]2C1=O (some centres not stated) | 4.38% (inactive) |

| SMILES | activation |
| --- | --- |
| O=C(O)c1ccccc1C(=O)NC[C@@H]1c2ccccc2CCN1C(=O)[C@@H]1CCCC[C@@H]1C(=O)O | 0.179% (inactive) |
| O=C(O)[C@H]1CCCC[C@H]1C(=O)N1CCc2ccccc2[C@H]1CNS(=O)(=O)c1ccccc1 | 7.86% (inactive) |
| COC(=O)[C@@H]1CCCC[C@@H]1C(=O)N1CCc2ccccc2[C@@H]1CN1C(=O)c2ccccc2C1=O | -2.15% (inactive) |
| O=C(NCCCN1CCOCC1)c1ccccc1C(=O)NC[C@@H]1c2ccccc2CCN1C(=O)C1CCCCC1C(=O)O (some centres not stated) | 4.62% (inactive) |
| O=C(O)/C=C\C(=O)N1CCc2ccccc2C1CN1C(=O)c2ccccc2C1=O (configuration not stated) | 13% (inactive) |
| O=C(O)[C@H]1CCCC[C@H]1C(=O)N1CCc2ccccc2C1 (racemic) | -0.662% (inactive) |
| Cc1ccc(S(=O)(=O)NC[C@@H]2c3ccccc3CCN2C(=O)[C@@H]2CCCC[C@@H]2C(=O)O)c(C)c1 | 4.66% (inactive) |
| O=C(O)[C@H]1CCCC[C@H]1C(=O)NC(CN1C(=O)c2ccccc2C1=O)c1ccccc1 (some centres not stated) | -1.98% (inactive) |
| Cc1cc(C)c(S(=O)(=O)Nc2nc(NCCO)nc3ccccc23)c(C)c1 | 3.36% (inactive) |
| O=C(O)C1CCCCC1C(=O)N1CCc2ccccc2[C@H]1C(=O)NC12CC3CC(CC(C3)C1)C2 (some centres not stated) | -2.47% (inactive) |
| Cc1ccc(S(=O)(=O)NNc2nc(NCC(N)=O)nc3ccccc23)cc1 | 3% (inactive) |
| Cc1cc(C)c(S(=O)(=O)Nc2ncnc3ccccc23)c(C)c1 | 2.9% (inactive) |
| O=C(NCCc1ccccc1)c1ccccc1C(=O)NC[C@@H]1c2ccccc2CCN1C(=O)C1CCCCC1C(=O)O (some centres not stated) | 5.09% (inactive) |
| O=C(NC[C@@H]1c2ccccc2CCN1C(=O)[C@@H]1CCCC[C@@H]1C(=O)O)c1ccccc1CO | 2.2% (inactive) |
| CCOC(=O)C(C(=O)OCC)c1cc(CNS(=O)(=O)c2ccc(C)cc2C)c2ccccc2n1 | 1.4% (inactive) |
| O=C(O)[C@H]1CCCC[C@H]1C(=O)N1CCc2ccccc2[C@H]1CNc1nc(Cl)nc2ccccc12 | 5.4% (inactive) |
| NC(=O)[C@H]1CCCC[C@H]1C(=O)N1CCc2ccccc2[C@H]1CN1C(=O)c2ccccc2C1=O | 4.54% (inactive) |
| O=C(O)[C@@H]1CCCN1C(=O)N1CCc2ccccc2[C@H]1CN1C(=O)c2ccccc2C1=O | 5.41% (inactive) |
